The text below walks through data of patent US11401278B2, “Macrocyclic indole derivatives” (The Broad Institute, Inc., priority 2017, dated 2022).

What is called EC50 is the concentration that produces a half-maximal response. Lower therefore signals greater potency.

The assay concerns SUDHL5. The assay can be described thus: Induction of caspase-3/7 activity (Assay 4), SUDHL5. The assay is classed as cell-based. Particulars: caspase-3/7 induction, 3 hours, median. The gist of the method: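 Caspase-3/7 activity measured by Caspase-Glo 3/7 luminescence in DLBCL cells after 3 h compound treatment at 37 °C. Medium-only background subtracted. EC50 fitted with C0 fixed at 1 and top set to the reference compound's plateau/max induction.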

Structures can show the parent of a compound that is named as a salt.

In turn, `Cc1c2c(nn1C)CN(C)S(=O)(=O)CCCn1c(C(=O)O)c(CCCOc3cccc4ccccc34)c3ccc(Cl)c-2c31` (single isomer, unassigned; enantiomer 1) [Example 5, 4-Chloro-2,3,14-trimethyl-7-{3-[(naphthalen-1-yl)oxy]propyl}-13,13-dioxo-10,11,12,13,14,15-hexahydro-2H-13λ^6-pyrazolo[3′,4′:4,5][1,2,8]thiadiazacycloundecino[6,7,8-hi]indole-8-carboxylic acid-N-ethylethanamine salt (Enantiomer 1)] yielded a 50% effective concentration (EC50) of 0.13 µM.
In the case of `Cc1c2c(nn1C)C(CCN1CCOCC1)N(C)S(=O)(=O)CCCn1c(C(=O)O)c(CCCOc3cccc4cc(F)ccc34)c3ccc(Cl)c-2c31` (single isomer, unassigned; enantiomer 2) [Example 67, 4-chloro-7-{3-[(6-fluoronaphthalen-1-yl)oxy]propyl}-2,3,14-trimethyl-15-[2-(morpholin-4-yl)ethyl]-13,13-dioxo-10,11,12,13,14,15-hexahydro-2H-13lambda^6-pyrazolo[3′,4′:4,5][1,2,8]thiadiazacycloundecino[6,7,8-hi]indole-8-carboxylic acid (Enantiomer 2)] it was 0.0073 µM.
